In patent publication US5387602A, “1.5-diphenyl-3-(N-hydroxycarbamoyloxyalkyl)pyrazoles” (Ortho Pharmaceutical Corporation, priority 1993, dated 1995):

Legend:
[1] = molecular target: T1, RBL-1 Cell 5-Lipoxygenase (Rattus norvegicus, UniProt P12527); experiment: Procedure II: 5-lipoxygenase inhibition in disrupted RBL-1 cells (supernatant as enzyme source); assay type: biochemical; conditions: for IC50: read-out: IC50 5-LO (Procedure II)
T1 construct: the supernatant was saved as the source of enzymes; endogenous in cells; host or cells: RBL-1 (rat basophilic leukemia cells), 10,000×g supernatant of homogenate
T1 sequence (P12527 1-673): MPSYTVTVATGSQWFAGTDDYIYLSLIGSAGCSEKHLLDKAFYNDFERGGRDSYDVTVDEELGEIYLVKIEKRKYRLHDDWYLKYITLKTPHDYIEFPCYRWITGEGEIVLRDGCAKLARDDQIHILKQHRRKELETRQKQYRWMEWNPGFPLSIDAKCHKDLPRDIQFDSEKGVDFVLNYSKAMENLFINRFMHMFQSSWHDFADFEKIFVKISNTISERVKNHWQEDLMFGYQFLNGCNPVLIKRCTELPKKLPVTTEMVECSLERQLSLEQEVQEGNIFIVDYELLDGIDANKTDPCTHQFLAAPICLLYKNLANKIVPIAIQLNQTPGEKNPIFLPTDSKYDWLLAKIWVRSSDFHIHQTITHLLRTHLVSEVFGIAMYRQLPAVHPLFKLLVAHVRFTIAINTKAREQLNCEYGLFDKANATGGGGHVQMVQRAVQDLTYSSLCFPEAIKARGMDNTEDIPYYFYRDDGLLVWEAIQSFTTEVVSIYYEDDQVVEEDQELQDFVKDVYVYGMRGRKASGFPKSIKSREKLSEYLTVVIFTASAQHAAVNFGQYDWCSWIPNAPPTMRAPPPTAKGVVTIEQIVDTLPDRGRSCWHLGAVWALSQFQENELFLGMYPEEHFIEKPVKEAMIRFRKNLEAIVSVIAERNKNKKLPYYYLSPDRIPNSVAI
Experimental: (§1) RBL-1 Cell 5-Lipoxygenase and Cyclooxygenase
(§2) Rat basophilic leukemia cells (RBL-1; 5×10^7 viable cells/mL) were disrupted by homogenization on ice (four 20 sec bursts) with a Brinkman polytron. Complete cell breakage was verified microscopically. The homogenate was then centrifuged at 10,000×g for 48 minutes at 4° C. The pellet was discarded and the supernatant was saved as the source of enzymes. The supernatant was pre-incubated for five minutes at 37° C. in the presence of 2 mM of CaCl2 and compound or vehicle (1% DMSO). The conversion of AA into 5-LO products was initiated by adding 10 μL (50 μCi) of 1-^14 C-AA to each tube and incubated at 37° C. for 20 minutes. The reaction was stopped by adjusting the pH of each sample to 3 to 3.5 with 2M formic acid. Samples were extracted with three volumes of chloroform to isolate the products of 5-LO formed during the reaction. Fractions were dried under nitrogen, then resuspended in 40 μL of chloroform and spotted onto silica gel HL plates. The plates were developed in A-9 solvent. The dried plates were analyzed using a Bioscan Imaging TLC scanner to determine the percentage of radiolabelled AA converted to 5-HETE in each sample.
(§3) In the following tables, the superscripts indicate the number of experiments and, unless otherwise stated, the dose at which % inhibition is reported is 3 MPK.

[2] = molecular target: T2, RBL-1 Cell Cyclooxygenase (Rattus norvegicus, UniProt Q63921); experiment: Procedure II: cyclooxygenase inhibition in disrupted RBL-1 cells (supernatant as enzyme source); assay type: biochemical; conditions: for IC50: read-out: IC50 CO (Procedure II)
T2 construct: the supernatant was saved as the source of enzymes; endogenous in cells; host or cells: RBL-1 (rat basophilic leukemia cells), 10,000×g supernatant of homogenate
T2 sequence (Q63921 27-602): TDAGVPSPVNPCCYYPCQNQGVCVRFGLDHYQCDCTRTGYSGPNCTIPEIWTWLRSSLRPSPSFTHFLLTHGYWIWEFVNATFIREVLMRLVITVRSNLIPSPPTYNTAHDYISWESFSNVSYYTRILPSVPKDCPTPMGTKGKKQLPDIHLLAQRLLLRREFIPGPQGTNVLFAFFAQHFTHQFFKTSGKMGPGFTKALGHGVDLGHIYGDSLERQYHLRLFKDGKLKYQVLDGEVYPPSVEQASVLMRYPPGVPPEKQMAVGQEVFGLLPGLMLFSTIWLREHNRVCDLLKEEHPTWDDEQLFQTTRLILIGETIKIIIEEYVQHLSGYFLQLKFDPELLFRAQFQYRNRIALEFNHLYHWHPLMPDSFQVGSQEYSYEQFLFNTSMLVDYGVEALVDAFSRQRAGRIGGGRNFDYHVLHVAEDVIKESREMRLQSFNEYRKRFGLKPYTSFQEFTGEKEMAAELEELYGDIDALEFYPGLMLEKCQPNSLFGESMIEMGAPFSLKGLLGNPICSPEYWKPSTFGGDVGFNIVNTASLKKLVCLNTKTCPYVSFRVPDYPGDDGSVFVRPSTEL
Experimental: as §1, §2, §3

SMILES | % INHIBITION 5-LO (Procedure II) [1] | IC50 [1] | % INHIBITION CO (Procedure II) [2] | IC50 [2]
COc1ccc(-n2nc(CCCOC(=O)N(O)C(C)C)c(Cl)c2-c2ccc(Cl)cc2)cc1 [3-E] | 86% | 0.07 µM | 52% | 17 µM
COc1ccc(-n2nc(CCCOC(=O)N(C)O)c(Br)c2-c2ccc(Cl)cc2)cc1 [3-F] | 88% | 0.06 µM | 100% | 6.11 µM
COc1ccc(-n2nc(CCCOC(=O)N(O)C(C)C)c(Br)c2-c2ccc(Cl)cc2)cc1 [3-G] | 80% | 0.03 µM | 0% | 3.17 µM
